Data as given in ChEMBL document CHEMBL1629666, “Quinolone resistance in Neisseria gonorrhoeae: rapid genotyping of quinolone resistance-determining regions in gyrA and parC genes by melting curve analysis predicts susceptibility” (2009).
≈ marks a conversion by molar mass, not a printed value.

Tests used:
Neisseria gonorrhoeae [1] = test: microbe, parasite or virus in culture; settings: isolate 108 175 340
Description: Antimicrobial activity against Neisseria gonorrhoeae isolate 108 175 340 harboring gyrA S91F, D95G and parC E91G mutant gene by Etest

Neisseria gonorrhoeae [2] = test: Antimicrobial activity against Neisseria gonorrhoeae WHO. P by Etest
Neisseria gonorrhoeae [3] = test: Antimicrobial activity against Neisseria gonorrhoeae isolate IPC-NG3 harboring gyrA S91F and D95A mutant gene by Etest
Neisseria gonorrhoeae [4] = test: Antimicrobial activity against Neisseria gonorrhoeae isolate IPC-NG18 harboring gyrA S91F, D95A and parC S87N mutant gene by Etest
Neisseria gonorrhoeae [5] = test: Antimicrobial activity against Neisseria gonorrhoeae isolate IPC-NG16 harboring gyrA S91F, D95A and parC S87R mutant gene by Etest
Neisseria gonorrhoeae [6] = test: Antimicrobial activity against Neisseria gonorrhoeae WHO. L harboring gyrA S91F, D95N and parC D86N and S88P mutant gene by Etest
Neisseria gonorrhoeae [7] = test: Antimicrobial activity against Neisseria gonorrhoeae isolate IPC-NG8 by Etest
Neisseria gonorrhoeae [8] = test: Antimicrobial activity against Neisseria gonorrhoeae 96G0142 harboring gyrA S91Y and parC E91Q mutant gene by Etest
Neisseria gonorrhoeae [9] = test: Antimicrobial activity against Neisseria gonorrhoeae WHO. C by Etest
Neisseria gonorrhoeae [10] = test: Antimicrobial activity against Neisseria gonorrhoeae isolate IPC-NG1 harboring gyrA S91F, D95Y and parC E91G mutant gene by Etest
Neisseria gonorrhoeae [11] = test: Antimicrobial activity against Neisseria gonorrhoeae isolate IPC-NG5 harboring gyrA S91F, D95A and parC E91G mutant gene by Etest
Neisseria gonorrhoeae [12] = test: Antimicrobial activity against Neisseria gonorrhoeae 98G0867 harboring gyrA S91F, D95G and parC S87R mutant gene by Etest
Neisseria gonorrhoeae [13] = test: Antimicrobial activity against Neisseria gonorrhoeae WHO. G harboring gyrA S91F mutant gene by Etest
Neisseria gonorrhoeae [14] = test: Antimicrobial activity against Neisseria gonorrhoeae 92G0551 harboring gyrA S91Y mutant gene by Etest
Neisseria gonorrhoeae [15] = test: Antimicrobial activity against Neisseria gonorrhoeae 93G0065 harboring gyrA D95N mutant gene by Etest
Neisseria gonorrhoeae [16] = test: Antimicrobial activity against Neisseria gonorrhoeae WHO. M harboring gyrA S91F and D95G mutant gene by Etest
Neisseria gonorrhoeae [17] = test: Antimicrobial activity against Neisseria gonorrhoeae isolate IPC-NG10 harboring gyrA S91F, D95G and parC S87R mutant gene by Etest
Neisseria gonorrhoeae [18] = test: Antimicrobial activity against Neisseria gonorrhoeae 97G0319 harboring gyrA D95G mutant gene by Etest
Neisseria gonorrhoeae [19] = test: Antimicrobial activity against Neisseria gonorrhoeae 98G0798 harboring gyrA S91F mutant gene by Etest
Neisseria gonorrhoeae [20] = test: Antimicrobial activity against Neisseria gonorrhoeae isolate IPC-NG19 harboring gyrA S91F, D95A and parC S87N mutant gene by Etest
Neisseria gonorrhoeae [21] = test: Antimicrobial activity against Neisseria gonorrhoeae isolate IPC-NG13 harboring gyrA S91F, D95A and parC S87N and E91Q mutant gene by Etest
Neisseria gonorrhoeae [22] = test: Antimicrobial activity against Neisseria gonorrhoeae 97G0109 harboring gyrA S91F, D95G and parC D86N mutant gene by Etest
Neisseria gonorrhoeae [23] = test: Antimicrobial activity against Neisseria gonorrhoeae 91G0316 harboring gyrA S91F mutant gene by Etest
Neisseria gonorrhoeae [24] = test: Antimicrobial activity against Neisseria gonorrhoeae 07 QA 06 harboring gyrA S91F mutant gene by Etest
Neisseria gonorrhoeae [25] = test: Antimicrobial activity against Neisseria gonorrhoeae 95G0142 harboring gyrA S91F, D95N and parC S87R mutant gene by Etest
Neisseria gonorrhoeae [26] = test: Antimicrobial activity against Neisseria gonorrhoeae 07 QA 02 by Etest
Neisseria gonorrhoeae [27] = test: Antimicrobial activity against Neisseria gonorrhoeae isolate IPC-NG9 harboring gyrA S91F, D95A and parC S87N and E91Q mutant gene by Etest
Neisseria gonorrhoeae [28] = test: Antimicrobial activity against Neisseria gonorrhoeae isolate IPC-NG7 harboring gyrA S91F, D95G and parC S87N and E91Q mutant gene by Etest
Neisseria gonorrhoeae [29] = test: Antimicrobial activity against Neisseria gonorrhoeae 97G0398 harboring gyrA S91F, D95G and parC S88P mutant gene by Etest
Neisseria gonorrhoeae [30] = test: Antimicrobial activity against Neisseria gonorrhoeae isolate IPC-NG6 harboring gyrA S91F, D95Y and parC E91G mutant gene by Etest
Neisseria gonorrhoeae [31] = test: Antimicrobial activity against Neisseria gonorrhoeae 91G0622 harboring gyrA D95N mutant gene by Etest
Neisseria gonorrhoeae [32] = test: Antimicrobial activity against Neisseria gonorrhoeae 98G0872 harboring gyrA S91F, D95N and parC E91K mutant gene by Etest
Neisseria gonorrhoeae [33] = test: Antimicrobial activity against Neisseria gonorrhoeae 98G0959 harboring gyrA D95N mutant gene by Etest
Neisseria gonorrhoeae [34] = test: Antimicrobial activity against Neisseria gonorrhoeae WHO. O by Etest
Neisseria gonorrhoeae [35] = test: Antimicrobial activity against Neisseria gonorrhoeae isolate IPC-NG14 harboring gyrA S91F and D95A mutant gene by Etest
Neisseria gonorrhoeae [36] = test: Antimicrobial activity against Neisseria gonorrhoeae isolate IPC-NG2 harboring gyrA S91F, D95Y and parC E91G mutant gene by Etest

SMILES: O=C(O)c1cn(C2CC2)c2cc(N3CCNCC3)c(F)cc2c1=O [CIPROFLOXACIN]
- MIC (Neisseria gonorrhoeae [1]): 4 µg/mL (≈ 12.1 µM)
- MIC (Neisseria gonorrhoeae [2]): 0.016 µg/mL (≈ 0.0483 µM)
- MIC (Neisseria gonorrhoeae [3]): 3 µg/mL (≈ 9.05 µM)
- MIC (Neisseria gonorrhoeae [4]): > 32 µg/mL
- MIC (Neisseria gonorrhoeae [5]): 1.5 µg/mL (≈ 4.53 µM)
- MIC (Neisseria gonorrhoeae [6]): 16 µg/mL (≈ 48.3 µM)
- MIC (Neisseria gonorrhoeae [7]): 0.016 µg/mL (≈ 0.0483 µM)
- MIC (Neisseria gonorrhoeae [8]): 1 µg/mL (≈ 3.02 µM)
- MIC (Neisseria gonorrhoeae [9]): 0.016 µg/mL (≈ 0.0483 µM)
- MIC (Neisseria gonorrhoeae [10]): > 32 µg/mL
- MIC (Neisseria gonorrhoeae [11]): > 32 µg/mL
- MIC (Neisseria gonorrhoeae [12]): 8 µg/mL (≈ 24.1 µM)
- MIC (Neisseria gonorrhoeae [13]): 0.25 µg/mL (≈ 0.754 µM)
- MIC (Neisseria gonorrhoeae [14]): 0.5 µg/mL (≈ 1.51 µM)
- MIC (Neisseria gonorrhoeae [15]): 0.125 µg/mL (≈ 0.377 µM)
- MIC (Neisseria gonorrhoeae [16]): 2 µg/mL (≈ 6.04 µM)
- MIC (Neisseria gonorrhoeae [17]): > 32 µg/mL
- MIC (Neisseria gonorrhoeae [18]): 0.125 µg/mL (≈ 0.377 µM)
- MIC (Neisseria gonorrhoeae [19]): 1 µg/mL (≈ 3.02 µM)
- MIC (Neisseria gonorrhoeae [20]): > 32 µg/mL
- MIC (Neisseria gonorrhoeae [21]): 12 µg/mL (≈ 36.2 µM)
- MIC (Neisseria gonorrhoeae [22]): 2 µg/mL (≈ 6.04 µM)
- MIC (Neisseria gonorrhoeae [23]): 0.5 µg/mL (≈ 1.51 µM)
- MIC (Neisseria gonorrhoeae [24]): 0.38 µg/mL (≈ 1.15 µM)
- MIC (Neisseria gonorrhoeae [25]): 32 µg/mL (≈ 96.6 µM)
- MIC (Neisseria gonorrhoeae [26]): 0.023 µg/mL (≈ 0.0694 µM)
- MIC (Neisseria gonorrhoeae [27]): 16 µg/mL (≈ 48.3 µM)
- MIC (Neisseria gonorrhoeae [28]): > 32 µg/mL
- MIC (Neisseria gonorrhoeae [29]): 2 µg/mL (≈ 6.04 µM)
- MIC (Neisseria gonorrhoeae [30]): > 32 µg/mL
- MIC (Neisseria gonorrhoeae [31]): 0.125 µg/mL (≈ 0.377 µM)
- MIC (Neisseria gonorrhoeae [32]): 8 µg/mL (≈ 24.1 µM)
- MIC (Neisseria gonorrhoeae [33]): 0.25 µg/mL (≈ 0.754 µM)
- MIC (Neisseria gonorrhoeae [34]): 0.016 µg/mL (≈ 0.0483 µM)
- MIC (Neisseria gonorrhoeae [35]): 3 µg/mL (≈ 9.05 µM)
- MIC (Neisseria gonorrhoeae [36]): > 32 µg/mL
